# In patent publication US20250082760A1 (priority 2020, published 2025):
# Where a name gives a salt, the structure may show the parent alone.
# How the values were obtained:
# reserpine-treated mice = experiment: mouse sugar water preference test (reserpine depression model); assay type: in vivo, Kunming mice
# Procedure: Experimental drug, clomipramine (CLI), sigma company, batch number: C7291, 10 mg/ml (10% DMSO); reserpine (Res), sigma company, batch number: 83580, 1 mg/ml (10% DMSO);
# SPF adult male Kunming mice, 20-30 g, Laboratory Animal Center of Lanzhou University, animal certificate number: SCXK (Gan) 2018-0002, reared in separate cages, temperature 22±1° C., humidity […], 12 h/12 h light and dark cycle controlled by dynamic light (light-on time 8:000 h, light-off time 20:000 h, light intensity≈100 lux), animals could eat and move freely.
# (§1) Statistical analysis, the experimental data were analyzed by SPSS 19.0 statistical software, and all data were expressed as Means±SEM.
# [1] = test system: lipopolysaccharide-induced depression mouse model; experiment: lipopolysaccharide-induced depression mouse model (open field, forced swimming test, body weight); assay type: in vivo, ICR mice
# Procedure: Positive drug: fluoxetine hydrochloride capsule (specification 20 mg), take the content in a mortar, add 40 ml of 0.5% CMC-Na solution while grinding, to a suspended state, set EP tube for use; test drug (compound 5): dissolve into 5, 10, and 20 mg/ml solutions in distilled water, respectively, and put them in EP tubes for later use; modeling drug (LPS): take a frozen lipopolysaccharide PBS solution (1.2 mg: 1.2 ml), and after thawing Use a pipette to take 1 ml into the EP tube, replace with a new pipette tip and pipette 9 ml of normal saline into the EP tube, shake well for use.
# Except for the first group (blank control group), other groups of animals were intraperitoneally injected with LPS 2 h before the last administration on the 7th day to the mice in the model group, the positive drug group, and the low, middle and high dose groups of the test drug.
# The first group was the blank control group, which was given 0.5% CMC-Na 0.2 ml/20 g by gavage; the second group was the model group, which was given 0.5% CMC-Na by gavage; the third group was the positive drug group, which was given by gavage Flunarizine hydrochloride (sibilin) 1 mg/kg; the fourth group was the low-dose group of the test drug, which was given 100 mg/kg of compound 5 by gavage; the fifth group was the medium-dose group of the test drug, which was given 200 mg/kg by gavage. kg of compound 5; the sixth group was the test drug high-dose group, and 400 mg/kg of compound 5 was administered by gavage. The drug was administered for one week, and the second to sixth groups were intraperitoneally injected with 1 mg/kg (0.2 ml/20 g) of LPS on the seventh day to establish a model.
# On the 7th day, before the last administration and modeling, the effect of the drug on the spontaneous activity of the mice should be investigated, and it is excluded that the drug increases the spontaneous activity of the mice and interferes with the immobility time in the forced swimming experiment. The total migration distance of each mouse in the open field (50×50×50 cm) within 5 min was calculated using the open field experimental instrument and related computer software. Before the data collection, each mouse was given 5 min to familiarize with the open field environment, after each mouse was tested, its excrement was removed and the odor was eliminated with an alcohol spray bottle.
# Because the air temperature is low, it is appropriate to control the water temperature by adding hot water to the cylinder.
# In the spontaneous activity, the behavioral index selects the total migration distance of mice in the open field within 5 minutes,
# by tracking the movement trajectory of mice through monitoring devices, and using computer software, the total distance of movement can be directly obtained; in the FST experiment, the mice were placed in a into a transparent cylinder filled with warm water (about 25° C.) for 6 minutes, the mice will experience struggling, swimming and floating behaviors, the time when the mice stop struggling to float on the water surface is identified as a state of despair caused by depression, by using monitoring equipment and computer software to statistically analyze the state of mice after 4 minutes, the total “Immobility time” can be directly obtained.
# righting reflex in mice = experiment: mouse righting reflex test (sedative and hypnotic effects); assay type: in vivo, Kunming mice
# Procedure: Experimental animals, SPF Kunming mice, male, 20-30 g, Laboratory Animal Center of Lanzhou University (certificate number: SCXK (Gan) 2018-0002), reared in separate cages, temperature, 22±1° C., humidity, 50%, automatic in the light-controlled 12 h/12 h light-dark cycle (light-on time 8:00 h, light-off time 20:00 h, light intensity ≈100 lux) environment, free food and activities, adapted to the experimental environment for 5 days.
# as §1
# [2] = intraperitoneal, compound 5 56 mg/kg, Pro 25 mg/kg, A1P1 24 and 25 mg/kg, Dia 5 mg/kg, n = 7, listed as compound 5, hydrochloride
structure (smiles),measurement,setting,value
"CC(C)c1cccc(C(C)C)c1OC(=O)CC1(CN(C)C)CCCCC1 [Compound 5, 2,6-diisopropylphenyl 2-(1-((dimethylamino)methyl)cyclohexyl)acetate hydrochloride]",antidepressant effect (sugar water preference test),reserpine-treated mice; Res 6 mg/kg + compound 5 56 mg/kg i.p.,significant antidepressant effect
same,change of preference for sugar water compared with the Res+DMSO group,"reserpine-treated mice; after Res 6 mg/kg i.p., CLI 50, Pro 25, A1P1 24 and 25, compound 5 56 mg/kg i.p.",rose significantly
same,Sugar water preference (sugar water drinking amount/total drinking amount),"reserpine-treated mice; after Res 6 mg/kg i.p., CLI 50, Pro 25, A1P1 24 and 25, compound 5 56 mg/kg i.p., Means±SEM, Res + DMSO 0.642 ± 0.036, DMSO 0.901 ± 0.026",0.894 ± 0.028
same,effect on body weight of mice,"[1]; compound 5 100, 200, 400 mg/kg and positive drug, gavage for one week",no significant effect
same,alleviation of depressive behavior caused by LPS,"[1]; compound 5 100, 200, 400 mg/kg and positive drug, gavage for one week, no statistical difference found",certain alleviation effect
same,spontaneous activity: total migration distance in open field within 5 minutes,"[1]; reference blank group, day 7 before last administration, all dose groups, p>0.05",no significant effect
same,FST immobility time,"[1]; reference model group, compound 5 100, 200, 400 mg/kg and positive drug, gavage for one week, 4 h after LPS",not significantly different (p>0.05)
same,sedative effect,"righting reflex in mice; intraperitoneal 56 mg/kg, versus Pro and A1P1",better sedative effect
same,Observation of activity and other phenomena,"righting reflex in mice; intraperitoneal, compound 5 56 mg/kg, Pro 25 mg/kg, A1P1 24 and 25 mg/kg, Dia 5 mg/kg, n = 7, hydrochloride",Reduced activity
same,Disappearance time (latency of disappearance of the righting reflex),righting reflex in mice; [2],did not disappear
same,Observation of activity and other phenomena,righting reflex in mice; [2],significantly reduced
